The text below walks through data of ChEMBL document CHEMBL2406977, “The discovery of PLK4 inhibitors: (E)-3-((1H-Indazol-6-yl)methylene)indolin-2-ones as novel antiproliferative agents” (J Med Chem, 2013).

The subject of series [1] is MDA-MB-468. The series can be described thus: Antitumor activity against human MDA-MB-468 cells xenografted in CB-17 SCID mouse assessed as reduction in tumor size at 25 mg/kg, ip qd for 21 days relative to control. The format is functional. The following applies: MDA-MB-468, ip, 504 h, route intraperitoneal, read-out: TGI. (In general: Xenograft models place foreign cells or tissue in a host animal.)

Series [2] can be described thus: Cmax in SCID mouse at 50 mg/kg, ip. The format is ADME, organism-based. The conditions noted are these: in vivo. Also noted: dose 50 mg/kg, route intraperitoneal.
Series [3] has as its target T1, Serine/threonine-protein kinase PLK4 (Homo sapiens, UniProt O00444).
T1 sequence (O00444 whole entry): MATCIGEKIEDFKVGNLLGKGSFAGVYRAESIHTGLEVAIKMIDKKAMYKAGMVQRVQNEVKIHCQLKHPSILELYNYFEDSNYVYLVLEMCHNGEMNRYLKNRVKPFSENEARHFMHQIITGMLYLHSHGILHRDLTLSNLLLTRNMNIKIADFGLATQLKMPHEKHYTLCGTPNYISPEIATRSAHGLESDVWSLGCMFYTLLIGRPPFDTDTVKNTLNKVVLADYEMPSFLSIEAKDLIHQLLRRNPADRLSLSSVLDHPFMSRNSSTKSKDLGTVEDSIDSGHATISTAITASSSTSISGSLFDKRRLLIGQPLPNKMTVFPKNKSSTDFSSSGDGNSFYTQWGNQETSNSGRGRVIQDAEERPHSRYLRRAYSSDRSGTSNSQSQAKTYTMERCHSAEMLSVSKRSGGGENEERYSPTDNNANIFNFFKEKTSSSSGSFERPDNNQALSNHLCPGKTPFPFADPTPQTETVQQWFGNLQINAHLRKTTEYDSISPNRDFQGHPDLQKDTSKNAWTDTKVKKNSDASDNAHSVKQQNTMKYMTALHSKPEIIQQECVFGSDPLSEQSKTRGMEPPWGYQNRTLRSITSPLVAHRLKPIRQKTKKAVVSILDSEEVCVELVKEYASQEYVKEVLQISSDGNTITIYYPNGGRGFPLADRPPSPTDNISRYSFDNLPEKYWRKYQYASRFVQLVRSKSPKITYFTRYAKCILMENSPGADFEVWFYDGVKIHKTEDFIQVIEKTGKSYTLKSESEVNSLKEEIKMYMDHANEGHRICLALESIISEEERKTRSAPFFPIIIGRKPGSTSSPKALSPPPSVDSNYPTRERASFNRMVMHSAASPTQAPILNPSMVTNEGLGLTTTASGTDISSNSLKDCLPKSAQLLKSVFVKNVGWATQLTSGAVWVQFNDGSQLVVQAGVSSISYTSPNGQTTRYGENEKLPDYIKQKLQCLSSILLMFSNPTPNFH
The series is described as follows: Inhibition of N-terminal GST-tagged human PLK4 (1 to 391 amino acids) expressed in Escherichia coli using TMB as substrate after 30 mins by indirect ELISA assay. A general note: An ELISA detects its analyte on a solid surface through an enzyme-linked reagent.

For series [4], the target named is Vascular endothelial growth factor receptor 2 (Homo sapiens, UniProt P35968). The series can be described thus: Inhibition of KDR (unknown origin) by FRET-based homogeneous assay.
Vascular endothelial growth factor receptor 2, sequence (P35968 whole entry): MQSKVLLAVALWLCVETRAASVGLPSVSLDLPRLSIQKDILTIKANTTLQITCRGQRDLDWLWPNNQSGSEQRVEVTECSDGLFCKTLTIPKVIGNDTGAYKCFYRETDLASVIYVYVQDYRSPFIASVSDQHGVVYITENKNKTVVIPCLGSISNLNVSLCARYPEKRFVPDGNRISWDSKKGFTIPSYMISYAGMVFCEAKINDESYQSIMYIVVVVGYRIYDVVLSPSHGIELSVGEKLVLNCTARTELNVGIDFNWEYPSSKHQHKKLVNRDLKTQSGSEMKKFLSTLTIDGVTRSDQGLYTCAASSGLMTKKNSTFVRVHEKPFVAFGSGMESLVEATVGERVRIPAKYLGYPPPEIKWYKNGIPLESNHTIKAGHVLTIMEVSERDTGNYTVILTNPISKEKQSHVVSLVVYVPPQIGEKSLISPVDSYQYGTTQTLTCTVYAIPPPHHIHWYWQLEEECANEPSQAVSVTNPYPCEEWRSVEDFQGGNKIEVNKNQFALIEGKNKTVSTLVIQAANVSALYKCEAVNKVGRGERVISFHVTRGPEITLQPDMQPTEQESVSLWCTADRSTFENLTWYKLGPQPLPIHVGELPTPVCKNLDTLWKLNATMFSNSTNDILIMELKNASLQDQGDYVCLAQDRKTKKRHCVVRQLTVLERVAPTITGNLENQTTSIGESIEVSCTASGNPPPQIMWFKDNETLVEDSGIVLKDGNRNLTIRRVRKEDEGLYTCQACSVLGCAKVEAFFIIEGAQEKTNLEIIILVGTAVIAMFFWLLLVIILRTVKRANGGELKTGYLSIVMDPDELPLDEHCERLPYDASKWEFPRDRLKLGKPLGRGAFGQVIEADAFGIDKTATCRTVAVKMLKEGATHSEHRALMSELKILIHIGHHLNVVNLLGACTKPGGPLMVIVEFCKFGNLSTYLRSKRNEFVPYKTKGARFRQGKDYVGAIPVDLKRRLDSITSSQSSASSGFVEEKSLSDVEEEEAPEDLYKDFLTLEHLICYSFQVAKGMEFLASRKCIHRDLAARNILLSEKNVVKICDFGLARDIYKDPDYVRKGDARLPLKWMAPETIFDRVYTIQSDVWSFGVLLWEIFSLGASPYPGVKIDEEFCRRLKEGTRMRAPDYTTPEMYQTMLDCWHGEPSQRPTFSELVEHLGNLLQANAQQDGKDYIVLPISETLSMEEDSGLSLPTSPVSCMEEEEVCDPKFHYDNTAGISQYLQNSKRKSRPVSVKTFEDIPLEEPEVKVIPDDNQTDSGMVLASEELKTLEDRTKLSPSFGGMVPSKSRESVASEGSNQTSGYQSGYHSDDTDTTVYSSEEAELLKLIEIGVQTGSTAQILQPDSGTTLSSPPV
Series [5] can be described thus: Plasma protein binding in mouse at […] after 4 hrs by equilibrium dialysis method. The format is ADME, cell-free. The following applies: read-out: PPB. (In equilibrium dialysis free small molecules cross a membrane that holds back macromolecules.)
Series [6] is described as follows: Permeability of the compound at pH 7.4 by PAMPA. The format is ADME. The conditions noted are these: read-out: permeability.
The target in series [7] is T2, Receptor-type tyrosine-protein kinase FLT3 (Homo sapiens, UniProt P36888).
T2 sequence (P36888 whole entry): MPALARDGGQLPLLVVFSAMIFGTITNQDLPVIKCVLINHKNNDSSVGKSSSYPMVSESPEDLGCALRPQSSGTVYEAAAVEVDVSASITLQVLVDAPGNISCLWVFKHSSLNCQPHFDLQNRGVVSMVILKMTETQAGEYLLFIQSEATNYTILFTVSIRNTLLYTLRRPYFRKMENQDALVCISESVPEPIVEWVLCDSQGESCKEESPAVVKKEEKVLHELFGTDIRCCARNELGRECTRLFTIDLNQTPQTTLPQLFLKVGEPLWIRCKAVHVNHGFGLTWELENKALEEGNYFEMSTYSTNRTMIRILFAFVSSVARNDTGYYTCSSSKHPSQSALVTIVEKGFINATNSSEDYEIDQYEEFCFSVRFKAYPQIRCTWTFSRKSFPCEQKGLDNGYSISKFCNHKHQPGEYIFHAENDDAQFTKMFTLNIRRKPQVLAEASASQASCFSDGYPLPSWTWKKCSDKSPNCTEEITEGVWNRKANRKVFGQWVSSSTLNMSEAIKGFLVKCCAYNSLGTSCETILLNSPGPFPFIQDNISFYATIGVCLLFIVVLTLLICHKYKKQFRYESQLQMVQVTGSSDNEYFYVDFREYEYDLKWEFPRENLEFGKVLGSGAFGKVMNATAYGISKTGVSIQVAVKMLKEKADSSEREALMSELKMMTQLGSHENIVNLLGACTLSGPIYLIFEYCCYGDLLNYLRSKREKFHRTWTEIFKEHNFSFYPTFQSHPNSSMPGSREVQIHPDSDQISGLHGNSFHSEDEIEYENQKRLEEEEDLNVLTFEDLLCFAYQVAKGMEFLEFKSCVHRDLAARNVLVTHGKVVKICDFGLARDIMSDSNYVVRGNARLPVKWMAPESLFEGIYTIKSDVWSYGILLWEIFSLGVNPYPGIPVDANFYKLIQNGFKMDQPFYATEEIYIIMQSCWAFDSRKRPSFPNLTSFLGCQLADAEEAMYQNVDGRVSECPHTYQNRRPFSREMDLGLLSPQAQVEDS
The series is described as follows: Inhibition of FLT3 (unknown origin) by FRET-based homogeneous assay.

Series [8] relates to MCF7. The series can be described thus: Antiproliferative activity against human MCF7 cells assessed as growth inhibition after 5 days by SRB assay. The format is functional. The conditions noted are these: MCF7, 120 h.
The nature of series [9]: AUC in SCID mouse at 50 mg/kg, ip. The following applies: plasma. Also noted: dose 50 mg/kg, route intraperitoneal. The class given is ADME, organism-based.
The subject of series [10] is MDA-MB-468. The series can be described thus: Antitumor activity against human MDA-MB-468 cells xenografted in CB-17 SCID mouse assessed as reduction in tumor size at 50 mg/kg, ip qd for 21 days. The format is functional. The following applies: MDA-MB-468, ip, 504 h, route intraperitoneal, read-out: TGI.
The target in series [11] is Cytochrome P450 2C19 (Homo sapiens, UniProt P33261). The series is described as follows: Inhibition of CYP2C19 (unknown origin) using MFC as substrate after 30 mins by fluorescence assay. The format is ADME.
Cytochrome P450 2C19, sequence (P33261 whole entry): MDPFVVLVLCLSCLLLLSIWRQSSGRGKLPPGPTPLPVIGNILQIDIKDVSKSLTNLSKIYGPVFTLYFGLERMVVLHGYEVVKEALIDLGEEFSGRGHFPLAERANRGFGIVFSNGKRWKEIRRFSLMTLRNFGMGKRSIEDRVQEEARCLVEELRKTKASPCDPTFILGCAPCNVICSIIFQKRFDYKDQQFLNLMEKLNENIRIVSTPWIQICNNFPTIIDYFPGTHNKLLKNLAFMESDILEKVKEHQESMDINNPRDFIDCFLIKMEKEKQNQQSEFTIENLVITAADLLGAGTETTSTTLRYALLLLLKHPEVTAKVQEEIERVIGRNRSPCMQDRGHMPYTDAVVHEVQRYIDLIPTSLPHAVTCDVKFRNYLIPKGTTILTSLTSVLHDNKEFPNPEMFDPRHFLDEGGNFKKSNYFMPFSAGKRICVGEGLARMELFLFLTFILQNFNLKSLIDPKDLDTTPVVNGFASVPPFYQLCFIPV
Series [12] has as its system MDA-MB-468. The series can be described thus: Antiproliferative activity against human MDA-MB-468 cells assessed as growth inhibition after 5 days by SRB assay. The class given is functional. The conditions noted are these: MDA-MB-468, 120 h.
For series [13], the target named is Cytochrome P450 3A4 (Homo sapiens, UniProt P08684). The series can be described thus: Inhibition of CYP3A4 (unknown origin) after 10 mins by fluorescence assay. The class given is ADME.
Cytochrome P450 3A4, sequence (P08684 whole entry): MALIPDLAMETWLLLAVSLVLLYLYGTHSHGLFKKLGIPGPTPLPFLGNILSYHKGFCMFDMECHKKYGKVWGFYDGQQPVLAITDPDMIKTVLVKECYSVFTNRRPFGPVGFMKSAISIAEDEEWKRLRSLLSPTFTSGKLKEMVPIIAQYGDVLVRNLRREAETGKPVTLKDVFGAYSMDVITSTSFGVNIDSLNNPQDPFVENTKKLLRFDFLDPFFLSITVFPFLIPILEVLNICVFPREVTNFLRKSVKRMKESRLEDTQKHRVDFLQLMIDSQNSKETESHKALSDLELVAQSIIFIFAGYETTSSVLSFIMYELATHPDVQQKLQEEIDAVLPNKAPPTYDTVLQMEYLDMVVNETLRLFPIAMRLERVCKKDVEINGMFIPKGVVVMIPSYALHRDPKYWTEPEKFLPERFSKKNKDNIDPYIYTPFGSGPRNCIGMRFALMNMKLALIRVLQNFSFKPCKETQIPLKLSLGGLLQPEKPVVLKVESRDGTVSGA
Series [14] deals with Serine/threonine-protein kinase PLK3 (Homo sapiens, UniProt Q9H4B4). The series is described as follows: Inhibition of PLK3 (unknown origin) by FRET-based homogeneous assay.
Serine/threonine-protein kinase PLK3, sequence (Q9H4B4 whole entry): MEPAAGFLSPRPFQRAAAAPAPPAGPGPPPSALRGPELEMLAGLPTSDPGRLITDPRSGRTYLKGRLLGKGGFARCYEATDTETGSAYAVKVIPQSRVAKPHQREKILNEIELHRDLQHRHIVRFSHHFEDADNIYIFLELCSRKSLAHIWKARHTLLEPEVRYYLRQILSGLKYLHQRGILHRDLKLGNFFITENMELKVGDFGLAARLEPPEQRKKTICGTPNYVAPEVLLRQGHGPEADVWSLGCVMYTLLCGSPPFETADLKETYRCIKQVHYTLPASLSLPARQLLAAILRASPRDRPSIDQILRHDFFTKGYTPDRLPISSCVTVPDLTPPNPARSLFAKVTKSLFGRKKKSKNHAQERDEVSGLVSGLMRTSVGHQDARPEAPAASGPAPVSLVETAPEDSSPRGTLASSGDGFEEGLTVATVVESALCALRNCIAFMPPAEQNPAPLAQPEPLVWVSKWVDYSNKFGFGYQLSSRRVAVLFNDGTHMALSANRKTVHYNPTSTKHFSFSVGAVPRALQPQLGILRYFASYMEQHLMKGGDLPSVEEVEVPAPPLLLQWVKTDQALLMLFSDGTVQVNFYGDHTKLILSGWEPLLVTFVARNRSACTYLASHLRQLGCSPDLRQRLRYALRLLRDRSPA
Series [15] concerns the target Cytochrome P450 2D6 (Homo sapiens, UniProt P10635). The series is described as follows: Inhibition of CYP2D6 (unknown origin) using AMMC as substrate after 30 mins by fluorescence assay. The format is ADME.
Series [16] has as its target Serine/threonine-protein kinase PLK1 (Homo sapiens, UniProt P53350). The series is described as follows: Inhibition of PLK1 (unknown origin) by FRET-based homogeneous assay.
For series [17], the system named is SK-BR-3. The series is described as follows: Antiproliferative activity against human SKBR3 cells assessed as growth inhibition after 5 days by SRB assay. The class given is functional. The conditions noted are these: SK-BR-3, 120 h.

Structures are written as SMILES. Bounds are passed on as bounds.

Cytochrome P450 2D6, sequence (P10635 whole entry): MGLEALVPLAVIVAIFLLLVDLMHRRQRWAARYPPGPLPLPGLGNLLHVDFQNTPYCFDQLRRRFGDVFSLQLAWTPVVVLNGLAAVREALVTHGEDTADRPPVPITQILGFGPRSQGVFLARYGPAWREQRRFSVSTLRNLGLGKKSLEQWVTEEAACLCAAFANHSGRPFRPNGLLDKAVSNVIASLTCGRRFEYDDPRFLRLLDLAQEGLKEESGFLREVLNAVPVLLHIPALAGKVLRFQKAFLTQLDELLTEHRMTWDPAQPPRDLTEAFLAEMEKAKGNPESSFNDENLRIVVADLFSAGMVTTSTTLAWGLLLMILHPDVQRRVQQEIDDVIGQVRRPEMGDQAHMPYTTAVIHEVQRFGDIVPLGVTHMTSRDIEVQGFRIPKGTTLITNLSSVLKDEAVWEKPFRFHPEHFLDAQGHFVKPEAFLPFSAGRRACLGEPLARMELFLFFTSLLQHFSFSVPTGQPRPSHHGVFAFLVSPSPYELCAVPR
Serine/threonine-protein kinase PLK1, sequence (P53350 whole entry): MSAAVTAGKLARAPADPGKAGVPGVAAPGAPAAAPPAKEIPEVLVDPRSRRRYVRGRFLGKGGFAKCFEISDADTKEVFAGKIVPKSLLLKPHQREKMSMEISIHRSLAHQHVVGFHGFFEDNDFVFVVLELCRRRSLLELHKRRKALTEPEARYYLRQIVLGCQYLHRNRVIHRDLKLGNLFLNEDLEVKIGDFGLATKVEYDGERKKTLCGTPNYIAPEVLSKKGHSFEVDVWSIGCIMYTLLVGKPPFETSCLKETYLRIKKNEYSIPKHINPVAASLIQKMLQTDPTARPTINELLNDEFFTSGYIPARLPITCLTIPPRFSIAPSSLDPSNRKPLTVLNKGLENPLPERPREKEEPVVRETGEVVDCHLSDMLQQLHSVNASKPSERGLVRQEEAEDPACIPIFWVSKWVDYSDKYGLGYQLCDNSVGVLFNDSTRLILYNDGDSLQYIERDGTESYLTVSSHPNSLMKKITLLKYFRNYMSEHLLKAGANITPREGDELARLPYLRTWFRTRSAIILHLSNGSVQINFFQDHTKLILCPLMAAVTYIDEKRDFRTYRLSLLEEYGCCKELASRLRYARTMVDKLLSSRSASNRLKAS

In the case of `COc1ccc2c(c1)/C(=C\c1ccc3c(/C=C/c4ccc(N5CCN(C)CC5)nc4)n[nH]c3c1)C(=O)N2`, the inhibition in vivo at 25 mg/kg in series [1] came out at 70%. The same molecule had a Cmax in series [2] of 92 ng/mL. Besides, the IC50 in [3] was 0.00061 µM; in series [4], 0.48 µM; in series [7], 0.18 µM; in [11], 1.6 µM; in [13], 10 µM; in series [14] it was greater than 10 µM. The IC50 in [15] and in series [16] was greater than 10 µM in each case. The fraction unbound at 4 h in series [5] came out at 0.01. The Papp in [6] worked out at 164 ×10⁻⁶ cm/s. Moreover, the figures for the GI50 in series [8], in [12] and in [17] were 0.01 µM, less than 0.01 µM and 2.3 µM, respectively. This molecule also returned an area under the curve (AUC) in series [9] of 190 ng·h/mL. In addition, in series [10], the inhibition in vivo at 50 mg/kg is 120%.

The term Cmax denotes the highest concentration seen after dosing. In general, IC50 refers to the concentration at which inhibition is half-maximal. Broadly, the GI50 is the concentration that inhibits growth by half. In general, AUC refers to the area under the concentration-time curve, a measure of exposure. A high value points to high exposure.
